In brackets after ≈: the same amount, converted by molar mass.
Experiments:
Rattus norvegicus = conditions: for LD50: acute, mortality
Canidae = conditions: chronic; duration: 2 years; oral; Dog Other; body weight
Colinus virginianus = conditions: for LC50: diet
Apis mellifera = conditions: acute, mortality
Bibionidae = conditions: chronic/long-term; duration: 28 days; other
Folsomia candida = conditions: chronic/long-term; duration: 28 days
Mus musculus = conditions: chronic; duration: 78 weeks; oral; diet; histopathology: neoplastic
Oncorhynchus mykiss = conditions: acute; duration: 96 hours; mortality
Pimephales promelas = conditions: chronic/long-term; duration: 33 days; growth

CS(=O)c1cc(C(F)(F)F)cnc1C(=O)O (centres undefined)
LD50 (Rattus norvegicus; oral): > 5000 mg/kg-day

NC(=O)c1c(Cl)cccc1Cl [2,6-Dichlorobenzamide]
NOAEL (Canidae): 4.5 mg/kg-day
LC50 (Colinus virginianus; acute, oral, mortality): 1170 mg/kg-day
NOAEL (Oryctolagus sp.; reproduction developmental, body weight): 30 mg/kg-day
LD50 (Rattus norvegicus; oral, F): 500 mg/kg-day
LD50 (Rattus norvegicus; oral, M): 2000 mg/kg-day
NOAEL (Rattus norvegicus; chronic, duration: 2 years, oral, histopathology: nonneoplastic): 5.7 mg/kg-day

O=C(O)c1ncc(C(F)(F)F)cc1Cl [3-Chloro-5-(trifluoromethyl)pyridine-2-carboxylic acid]
LD50 (Rattus norvegicus; oral): 5000 mg/kg-day

O=C(O)c1ncc(C(F)(F)F)cc1S(=O)(=O)O [3-Sulfo-5-trifluoromethyl pyridine-2-carboxylic acid]
LD50 (Rattus norvegicus; oral): > 5000 mg/kg-day

O=C(NCc1ncc(C(F)(F)F)cc1Cl)c1c(Cl)cccc1Cl [Fluopicolide]
LD50 (Apis mellifera; dermal): > 100 µg/piece
LD50 (Apis mellifera; oral, unspecified): > 241 µg/piece
NOEC (Bibionidae): 49 mg/kg
LC50 (Colinus virginianus; acute, oral, mortality): > 1740 mg/kg-day
LD50 (Colinus virginianus; acute, oral, mortality): > 2250 mg/kg-day
NOEC (Colinus virginianus; reproduction developmental): 88.9 mg/kg-day
LC50 (Daphnia magna; acute, duration: 48 hours, mortality): > 1.8 µg/mL
NOEC (Daphnia magna; chronic/long-term, duration: 21 days, reproduction): 0.37 mg/L
NOEC (Folsomia candida): 31.2 mg/kg
NOAEL (Mus musculus): 7.9 mg/kg-day
LC50 (Oncorhynchus mykiss): 0.36 µg/mL (≈ 0.939 µM)
NOAEL (Oryctolagus sp.; developmental, development): 20 mg/kg-day
NOEL (Oryctolagus sp.; developmental, development): 20 mg/kg-day
NOEC (Pimephales promelas): 0.155 mg/L
LD50 (Rattus norvegicus; oral): > 5000 mg/kg-day
NOAEL (Rattus norvegicus; chronic, duration: 2 years, histopathology: nonneoplastic): 8.4 mg/kg-day
NOAEL (Rattus norvegicus; short-term, duration: 28 days, oral, body weight): 17.7 mg/kg-day
NOAEL (Rattus norvegicus; subchronic, duration: 90 days, oral, organ weight): 7.4 mg/kg-day
LC50 (Tagia sp.; acute, duration: 14 days, mortality): > 500 mg/kg
NOEC (Tagia sp.; chronic/long-term, duration: 28 days, growth): 62.5 mg/kg

Reference: EPA's ToxValDB 9.5 (doi:10.2903/j.efsa.2009.299r)
